From patent US10053434B2, “Histone deacetylase inhibitors and compositions and methods of use thereof” (CHDI Foundation, Inc., priority 2015, dated 2018)
Counter-ions that a name gives are not always drawn.

Experiments:
[1] = target: human catalytic domain HDAC4 protein (amino acids 648-1032) (Homo sapiens (Human), UniProt P56524); experiment: HDAC4 catalytic domain enzymatic activity, fluorogenic substrate Boc-Lys(TFA)-AMC; conditions: read-out: HDAC4 Biochemical IC50
Description: Example 25: Analysis of Inhibition of HDAC4 with Class IIa Histone Deacetylase (HDAC) Inhibitors
The potency of Class IIa Histone Deacetylase (HDAC) inhibitors was quantified by measuring the Histone Deacetylase 4 (HDAC4) catalytic domain enzymatic activity using the fluorogenic substrate, Boc-Lys(TFA)-AMC. The substrate was deacetylated to Boc-Lys-AMC by HDAC4. […] The fluorescence of the sample was directly related to the histone deacetylase activity in the sample.
(§1) Serially Dilute HDAC Inhibitor Compounds.
(§2) Serial dilutions of the HDAC inhibitors and control reference compound (1-(5-(3-((4-(1,3,4-oxadiazol-2-yl)phenoxy)methyl)-1,2,4-oxadiazol-5-yl)thiophen-2-yl)-2,2,2-trifluoroethanone) were made by first resuspending the lyophilized compound to a final concentration of 10 mM in 100% dimethyl sulfoxide (DMSO). Stocks of 60 μL aliquots of the 10 mM compound in DMSO were prepared and stored at −20° C. From one stock aliquot of each tested compound and the reference compound, a 16-point serial dilution was prepared according to Table 1 using a 125 μL 16-channel Matrix multi-channel pipette (Matrix Technologies Ltd).
2 μL (200×) of each diluted solution and each control (full activity: 100% DMSO alone or full inhibition 1 mM) was stamped into V-bottomed polypropylene 384-well compound plates using either the Bravo (384-well head from Agilent) or 12.5 μL 16-channel Matrix multi-channel pipette (Matrix Technologies Ltd). Each well with the 200× compound solution was diluted 1:20 by the addition of 38 μL assay buffer+DMSO (10.5% DMSO, 45 mM Tris-HCl, 123 mM NaCl, 2.4 mM KCl, and 0.9 mM MgCl2 at pH 8.0 and equilibrated to r.t.).
Prepare HDAC4 Catalytic Domain Enzyme (0.2 μg/mL).
The HDAC4 catalytic domain enzyme was human catalytic domain HDAC4 protein (amino acids 648-1032) with a C-terminal 6× histidine tag, produced by BioFocus. A working solution of enzyme was prepared from a […] stock aliquot of HDAC4 catalytic domain (thawed on ice) diluted to 0.2 μg/mL with assay buffer (50 mM Tris-HCl, 137 mM NaCl, 2.7 mM KCl, and 1 mM MgCl2 at pH 8 and equilibrated to r.t.) just prior to the addition of the enzyme to the assay.
Prepare 5× (50 μM) Boc-Lys(TFA)-AMC Substrate.
5× (50 μM) substrate was prepared just prior to the addition to the assay. A 1 mM substrate stock was made by diluting a 100 mM Boc-Lys(TFA)-AMC in DMSO solution 1:100 by adding it drop-wise to assay buffer (equilibrated to r.t.) while vortexing at slow speed to prevent precipitation. The 5× substrate was prepared by diluting the 1 mM substrate solution 1:20 by adding it drop-wise to assay buffer (equilibrated to r.t.) while vortexing at slow speed to prevent precipitation.
Prepare 3× (30 μM) Developer/Stop Solution.
3× (30 μM) Developer/Stop Solution was prepared just prior to addition to the plate by diluting a stock solution of 10 mM reference compound 1:333 in 25 mg/mL trypsin (PAA Laboratories Ltd.) equilibrated to r.t.
5 μL of each solution of 1:20 diluted compound from above was transferred to a clear bottomed, black, 384-well assay plate using the Bravo or the Janus (384-well MDT head from Perkin Elmer). Using a 16-channel Matrix multi-channel pipette, 35 μL of the working solution of HDAC4 catalytic domain enzyme (0.2 μg/mL in assay buffer) was transferred to the assay plate. The assay was then started by adding 10 μL of 5× (50 μM) substrate to the assay plates using either the Bravo, Janus or 16-channel Matrix multi-channel pipette. The assay plate was then shaken for two minutes on an orbital shaker at 900 rpm (rotations per minute). Next the plate was incubated for 15 minutes at 37° C. The reaction was stopped by adding 25 μL of 3× (30 μM) developer/stop solution to the assay plates using either the Bravo, Janus or a 16-channel Matrix multi-channel pipette. Assay plates were then shaken for 5 minutes on an orbital shaker at 1200 rpm. Next, the assay plates were incubated at 37° C. for 1 hour in a tissue culture incubator. […]

[2] = tested on: Cellular Class IIa HDAC activity; experiment: Inhibition of cellular Class IIa HDAC activity; Cell (Lys-TFA) substrate, Jurkat E6-1 cells; type: cell-based; conditions: Boc-Lys(TFA)-AMC substrate
Description: Example 29: Analysis of Inhibition of Cellular Class IIa HDAC Activity with Class IIa Histone Deacetylase (HDAC) Inhibitors; Cell (Lys-TFA) Substrate
(§3) The potency of Class IIa Histone Deacetylase (HDAC) inhibitors was quantified by measuring the cellular histone deacetylase enzymatic activity using the fluorogenic substrate, Boc-Lys(TFA)-AMC. After penetration in Jurkat E6-1 cells, the substrate was deacetylated to Boc-Lys-AMC. After cell lysis and cleavage by trypsin, the fluorophore AMC was released from the deacetylated substrate only. The fluorescence of the sample was directly related to the histone deacetylase activity in the sample.
Jurkat E6.1 Cell Culture and Plating.
(§4) Jurkat E6.1 cells were cultured according to standard cell culture protocols in Jurkat E6.1 Growth Media (RPMI without phenol red, 10% FBS, 10 mM HEPES, and 1 mM Sodium Pyruvate). Jurkat E6.1 cells were counted using a Coulter Counter and resuspended in Jurkat E6.1 growth media at a concentration of 75,000 cells/35 μL. 35 μL or 75,000 cells was seeded into Greiner microtitre assay plates. The plates were then incubated at 37° C. and 5% CO2 while other assay components were being prepared.
as §1
as §2, with “DMSO.” for “dimethyl sulfoxide (DMSO).”, “70” for “60”, “pipette.” for “pipette (Matrix Technologies Ltd).”
(§5) 2 μL (200×) of each diluted solution and each control (full activity: 100% DMSO alone or full inhibition 1 mM) was stamped into V-bottom polypropylene 384-well compound plates using either the Bravo, Janus, or 12.5 μL 16-channel Matrix multi-channel pipette. Each well with the 200× compound solution was diluted 1:20 by the addition of 38 μL Jurkat assay buffer+DMSO (9.5% DMSO, RPMI without phenol red, 0.09% FBS, 9 mM Hepes, and 0.9 mM Sodium Pyruvate equilibrated to r.t.)
Prepare 5× (500 μM) Boc-Lys(TFA)-AMC Substrate.
(§6) 5× (500 μM) substrate was prepared just prior to the addition to the assay. The 5× substrate was prepared by diluting a 100 mM Boc-Lys(TFA)-AMC in DMSO solution 1:200 by adding it drop-wise to Jurkat assay medium (RPMI without phenol red, 0.1% FBS, 10 mM Hepes, and 1 mM Sodium Pyruvate equilibrated to 37° C.) while vortexing at slow speed to prevent precipitation.
(§7) 10 mL of 3× lysis buffer was prepared with 8.8 mL of 3× stock lysis buffer (50 mM Tris-HCl, pH 8.0, 137 mM NaCl, 2.7 mM KCl, 1 mM MgCl2, 1% Nonidet P40 Substitute equilibrated to r.t.) and 1.2 mL of 3 mg/mL Trypsin equilibrated to r.t.
(§8) 5 μL of each solution of 1:20 diluted compound from above was transferred to the Greiner microtitre assay plates with 75,000 cells/well using the Bravo. Cells were then incubated for 2 hours at 37° C. and 5% CO2. The assay was then started by adding 10 μL of 5× (500 μM) substrate to the assay plate using either the Bravo or 16-channel Matrix multi-channel pipette. The cells were then incubated for 3 hours at 37° C. and 5% CO2. Next, 25 μL of 3× lysis buffer was added to each well using either the 125 μL 16 channel pipette or the Bravo. The assay plate was then incubated overnight (15-16 hours) at 37° C. and 5% CO2. The following day, the plates were shaken on an orbital shaker for 1 minute at 900 rpm. Finally the top read fluorescence (Excitation: 355 nm, Emission: 460 nm) was measured using PerkinElmer EnVision.

[3] = tested on: Cellular Class I HDAC activity; experiment: Inhibition of cellular Class I HDAC activity; Cell (Lys-Ac) substrate, Jurkat E6-1 cells; type: cell-based; conditions: Boc-Lys(Ac)-AMC substrate
Description: as §3, §4
as §2, with “DMSO.” for “dimethyl sulfoxide (DMSO).”, “70” for “60”, “pipette.” for “pipette (Matrix Technologies Ltd).”
as §5, §6, §7, §8
Example 30: Analysis of Inhibition of Cellular Class I HDAC Activity with Class IIa Histone Deacetylase (HDAC) Inhibitors; Cell (Lys-Ac) Substrate
The Class I HDAC activity of Class IIa Histone Deacetylase (HDAC) inhibitors was quantified by measuring the cellular histone deacetylase enzymatic activity using the fluorogenic substrate, Boc-Lys(Ac)-AMC. This was performed according to the procedure in Example 29, using Boc-Lys(Ac)-AMC substrate in place of Boc-Lys(TFA)-AMC.

Sequence of human catalytic domain HDAC4 protein (amino acids 648-1032) (P56524 648-1032): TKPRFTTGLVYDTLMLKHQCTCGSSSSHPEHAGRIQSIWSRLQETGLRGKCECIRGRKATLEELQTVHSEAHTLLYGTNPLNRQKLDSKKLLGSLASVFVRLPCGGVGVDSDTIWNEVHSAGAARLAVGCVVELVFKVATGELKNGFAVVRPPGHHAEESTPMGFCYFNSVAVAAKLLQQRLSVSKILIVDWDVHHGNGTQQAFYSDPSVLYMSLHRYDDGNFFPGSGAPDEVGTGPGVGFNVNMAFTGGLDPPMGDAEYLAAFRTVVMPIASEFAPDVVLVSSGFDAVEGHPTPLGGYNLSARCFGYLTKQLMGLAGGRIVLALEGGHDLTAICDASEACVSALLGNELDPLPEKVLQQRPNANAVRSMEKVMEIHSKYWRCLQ

SMILES	IC50 [1] [nM]	IC50 [2] [nM]	IC50 [3] [nM]
C[C@H](CN1CCCC(OC(F)F)C1)NC(=O)c1ccc(-c2noc(C(F)(F)F)n2)cc1 (single isomer, unassigned) [Example 9]	21	57	3700
C[C@H](CN1CCCC(OC(F)F)C1)NC(=O)c1ccc(-c2noc(C(F)(F)F)n2)cc1 (single isomer, unassigned) [Example 10]	3	7	1500
C[C@H](CN1CC2CCCC21)NC(=O)c1ccc(-c2noc(C(F)(F)F)n2)cc1 (single isomer, unassigned) [Example 20]	22	150	7800
C[C@H](CN1CC2CCCC21)NC(=O)c1ccc(-c2noc(C(F)(F)F)n2)cc1 (single isomer, unassigned) [Example 21]	4	16	3100
Cc1cc(C(=O)N[C@H](C)CN2CCC[C@@H]2C)ccc1-c1noc(C(F)(F)F)n1 [Example 1, (2S)-2-Methyl-1-((R)-2-(3-methyl-4-(5-(trifluoromethyl)-1,2,4-oxadiazol-3-yl)benzamido)propyl)pyrrolidin-1-ium formate]	100	1600	> 50000
O=C(NCCN1CC2CCC(C2)C1)c1ccc(-c2noc(C(F)(F)F)n2)cc1 [Example 2, N-(2-(3-Azabicyclo[3.2.1]octan-3-yl)ethyl)-4-(5-(trifluoromethyl)-1,2,4-oxadiazol-3-yl)benzamide]	140	330	4900
C[C@H](CN1Cc2ccccc2C1)NC(=O)c1ccc(-c2noc(C(F)(F)F)n2)cc1 [Example 3, (R)—N-(1-(Isoindolin-2-yl)propan-2-yl)-4-(5-(trifluoromethyl)-1,2,4-oxadiazol-3-yl)benzamide]	39	140	4900
C[C@H](CN1CC2CC2C1)NC(=O)c1ccc(-c2noc(C(F)(F)F)n2)cc1 (stereo partly drawn) [Example 4, N-((2R)-1-(3-Azabicyclo[3.1.0]hexan-3-yl)propan-2-yl)-4-(5-(trifluoromethyl)-1,2,4-oxadiazol-3-yl)benzamide]	8	51	6900
O=C(N[C@H](CN1CCCC1)C1CC1)c1ccc(-c2noc(C(F)(F)F)n2)cc1 [Example 5, (S)—N-(1-Cyclopropyl-2-(pyrrolidin-1-yl)ethyl)-4-(5-(trifluoromethyl)-1,2,4-oxadiazol-3-yl)benzamide]	48	710	25700
O=C(N[C@@H](CN1CCCC1)C1CC1)c1ccc(-c2noc(C(F)(F)F)n2)cc1 [Example 6, (R)—N-(1-Cyclopropyl-2-(pyrrolidin-1-yl)ethyl)-4-(5-(trifluoromethyl)-1,2,4-oxadiazol-3-yl)benzamide]	77	750	> 50000
C[C@H](CN1CCc2ccccc2C1)NC(=O)c1ccc(-c2noc(C(F)(F)F)n2)cc1 [Example 7, (R)—N-(1-(3,4-Dihydroisoquinolin-2(1H)-yl)propan-2-yl)-4-(5-(trifluoromethyl)-1,2,4-oxadiazol-3-yl)benzamide]	9	18	2400
C[C@H](CN1CC(c2ccccc2)C1)NC(=O)c1ccc(-c2noc(C(F)(F)F)n2)cc1 [Example 8, (R)—N-(1-(3-Phenylazetidin-1-yl)propan-2-yl)-4-(5-(trifluoromethyl)-1,2,4-oxadiazol-3-yl)benzamide]	14	39	710
C[C@H](CN1CCCC2(CC2)C1)NC(=O)c1ccc(-c2noc(C(F)(F)F)n2)cc1 [Example 11, (R)—N-(1-(5-Azaspiro[2.5]octan-5-yl)propan-2-yl)-4-(5-(trifluoromethyl)-1,2,4-oxadiazol-3-yl)benzamide]	3	9	970
C[C@H](CN1CCC2(CC1)CC2)NC(=O)c1ccc(-c2noc(C(F)(F)F)n2)cc1 [Example 12, (R)—N-(1-(6-Azaspiro[2.5]octan-6-yl)propan-2-yl)-4-(5-(trifluoromethyl)-1,2,4-oxadiazol-3-yl)benzamide]	30	58	4000
